Three compounds from patent publication EP0719267B1, “SECOND MESSENGER CELL SIGNALING INHIBITORS” (CELL THERAPEUTICS, INC., priority 1993, dated 1994) can be followed below.

A value given as a limit tells only on which side of the number the result lay.

Series [1] concerns transformed cells (Ras 3T3) and normal 3T3 cells. In words: Cytotoxicity for transformed versus non-transformed cells. Particulars: 1, 10 and 100 µM. The class given is cell-based. As for the experimental part:
This example compares cytotoxicity results for inventive compound no. 27 for transformed cells and non-transformed cells. In transformed cells (Ras 3T3) and in normal 3T3 cells, cytotoxicity of compound no. 27 at concentrations of 1, 10 and 100 µM was determined. Figure 18 reports results obtained in this assay. At each of the above concentrations, compound no.

The test system of series [2] is mast cell degranulation. In words: Serotonin release assay for inhibition of mast cell degranulation. Particulars: Concentration 50 µM. It is filed as cell-based. An excerpt: This assay provides an in vitro model for an allergy and asthma therapeutic product. […]
Series [3] concerns murine splenocyte proliferation. In words: Splenocyte (B cell) proliferation stimulated by anti-mu/anti-IgM and IL-4. It is filed as cell-based. Particulars: Mus musculus, anti-mu and IL-4 12.5 ng/ml. On the procedure:
This example illustrates inhibitive effects of compounds nos. 27 and 28 on murine splenocyte proliferation stimulated by anti-mu ([…]) and interleukin-4 (IL-4, 12.5 ng/ml). This in vitro assay, described above, is indicative of immune-suppressive/autoimmune treatment assay emphasizing humoral or B cell immune response. The inventive compound was added to the cells at the doses indicated two hours prior to activation with anti-mu and IL-4. Both compounds nos. 27 and 28 inhibited splenocyte proliferation in a dose-response manner. IC50 values for compounds nos. Background counts were less than 200 cpm.
In figure 57, results shown illustrate that inventive compound no. 45 inhibits B cell proliferation. Murine splenocytes were stimulated with anti-IgM antibodies (10 µg/ml) and murine IL-4 (12.5 ng/ml). Cells were pulsed with ^3HTdR at 44 hours, harvested 4 hours later, and the incorporation of ^3H-TdR was determined by liquid scintillation.

Series [4] has as its system mixed lymphocyte reaction assay culture. The series can be described thus: Cell percent viability in mixed lymphocyte reaction culture. It is filed as cell-based. Conditions: 100 µM, six days of cell culture. As for the experimental part:
Cell percent viability in mixed lymphocyte reaction assay culture was determined after six days of cell culture. […] Control cells unexposed to drugs are generally 78 to 85% viable under these culture conditions. In this assay, all inventive compounds were present at 100 µM concentrations, generally well above corresponding IC50 values in this assay (see fig. 2D). […] Compounds nos.

Series [5] deals with murine thymocyte proliferation. The series can be described thus: Thymocyte proliferation stimulated by Con A and IL-1α. Conditions: Mus musculus, 2 h, added two hours prior to Con A and IL-1α. The class given is cell-based. On the procedure: In a first part of this example, compounds nos. 30, 33, 28 and 27 (see above for chemical names and structures) show effective inhibition of murine thymocyte proliferation stimulated by Con A and interleukin 1 alpha (IL-1α). Compounds nos. 30, 33, 28 and 27 were added to cell cultures two hours prior to activation with Con A and IL-1α in a thymocyte co-stimulation procedure akin to that discussed in example 21. […] IC50 values determined for each inventive compound tested are as follow: compound no. […] Background counts in the assay were less than 200 cpm.

Series [6] deals with murine lymph node cell proliferation. The series can be described thus: Lymph node cell proliferation stimulated by antigen. The class given is cell-based. Conditions: Mus musculus. An excerpt:
This example illustrates activity of representative inventive compounds nos. 27, 49, 50, 45, 43 or 41 (above) in assays detecting activity in response to cell stimulus. One assay, murine lymph node cell proliferation (stimulated by anitgen) was used to determine inhibitive activity of compound no. 27 on proliferation of the lymph node cells. This in vitro assay is an immune suppressive/autoimmune treatment predictive assay emphasizing cellular or T cell immune response. The assay used murine T cells that proliferate in vitro in response to a soluble protein antigen, used to prime the T cells in vivo. Compound was added to the cells at doses indicated in figures 7 and 8 (showing assay results) two hours prior to activation with […]. Compound no. 27 inhibited T cell proliferation in a dose-response manner. IC50 values for compound no.

The test system of series [7] is proliferative PMBC response to allogeneic stimulation. The series can be described thus: Two-way mixed lymphocyte reaction. The class given is cell-based. An excerpt:
This example illustrates therapeutic potential for various autoimmune and inflammatory diseases of the inventive compounds by comparing potency (inhibitive activity) with cytotoxicity data obtained using the following indicative assay procedures. In a mixed lymphocyte reaction assay of compounds nos. […] Compounds nos. […] 2A and 2B. Both compounds nos. […] 2C.
Compound no. […] Compound no.

Series [8] relates to murine thymocyte proliferation. In words: Thymocyte proliferation co-stimulated by ConA and IL-2 (tritiated thymidine). It is filed as cell-based, Balb/C mice. Conditions: ConA and IL-2 co-stimulation. As for the experimental part: ConA, used to activate CD3, induces T-cell proliferation and differentiation. Thymuses, obtained from normal, female Balb/C mice, were dissociated and plated into 96-well plates at a density of 2 x 10^5 cells/well. ConA (0.25 mg/ml) and IL-2 (15 U/ml) were added to the wells. The cells were incubated for 4 days at 37°C. On day 4, the cells were pulsed with tritiated thymidine and incubated for an additional 4 hours. The amount of tritiated thymidine dye incorporated by the harvested cells was determined in a liquid scintillation counter. Drug doses (shown in figs. 1A and 1B) were added two hours prior to ConA and IL-2 activation.
Thymuses, obtained from normal, female Balb/C mice, were dissociated and plated into 96-well plates at a density of 2 x 10^5 cells/well. ConA (0.25 mg/ml) and IL-2 (15 U/ml) were added to the wells. The cells were incubated for 4 days at 37 °C. On day 4, the cells were pulsed with tritiated thymidine and incubated for an additional 4 hours. The amount of tritiated thymidine dye incorporated by the harvested cells was determined in a liquid scintillation counter. Doses (shown in figs. 26A, 26B and 26C) were added two hours prior to ConA and IL-2 activation.
In another in vitro protocol, thymocyte proliferation was induced by sub-mitogenic doses of Con A (0.25 µg/ml) and IL-2 (20 ng/ml). Cells were stimulated for 96 hours, prior to addition of ^3H-TdR for 4 hours. The cells were harvested and incorporation of ^3H-TdR was determined.
45 on co-stimulated thymocyte proliferation. In an assay procedure, murine thymocytes were stimulated with ConA and IL-2 with 1 µM compound no. 45 added either 1 hour prior to IL-2 (-1), simultaneous with IL-2 (0) or at various times following IL-2 addition (1-92 hour). At 92 hours the thymocytes were pulsed with ^3H-TdR, harvested and counted by scintillation 4 hours later.

Series [9] concerns Saccharomyces cervisiae. In words: Yeast growth assay (anti-yeast and anti-fungal activity). The class given is cell-based. Conditions: 100 µM. As for the experimental part:
This example illustrates the effects of a reference compound "X", and inventive compounds nos. 29, 30, 31, 32 and 33 (see above for names and structures) on yeast growth (Saccharomyces cervisiae)--using 100 µM concentrations--as compared with yeast activity in the absence of any compound additive (control). This assay measured anti-yeast and anti-fungal activity of the inventive compounds tested.

In series [10] the test system is CMV promoter activity. In words: microbe, parasite or virus in culture. It is filed as cell-based. An excerpt:
This example illustrates data of proliferative activity of various inventive compounds for inducing CMV promoter activity. The CMV promoter assay measures gene transcription and translation activity wherein any active compounds will have cytotoxic activity for inhibiting cellular protein synthesis in transformed (adenovirus) cells. Compound no. […]

Series [11] concerns PDGF/IL-1 co-stimulation, proliferation. In words: PDGF/IL-1 co-stimulation proliferation assay. It is filed as cell-based. Conditions: fig. 14. An excerpt: The PDGF/IL-1 assay is useful in measuring in vitro activity, indicative of therapeutic potential for treating or preventing restenosis and reperfusion. Figure 14 reports IC50 bar graph results for a group of inventive compounds nos. 27, 28, 32, 30, 31, 32 and 34. In this predictive, in vitro model, compounds nos.

Series [12] deals with Human stromal cells. In words: Stromal cell proliferation in response to PDGF-BB. It is filed as cell-based. Conditions: 50 ng/ml PDGF-BB. On the procedure: This assay is useful for predicting therapeutic activity for preventing or treating restenosis, atherosclerosis and coronary artery disease. Human stromal cells were starved in serum-free media for one day and then stimulated with 50 ng/ml PDGF-BB. Inventive compounds, at various concentrations, were added one hour prior to PDGF stimulation. PDGF and tritiated thymidine were added and the cells allowed to incubate for one day, following addition of the PDGF and thymidine. 24 Hours later, the cells were harvested and counted by liquid scintillation counting. Results for compounds nos. Background counts (i.e., starved cells) were approximately 1% of control levels. […] 30, 28, 29, 32 and 31, respectively.

Series [13] is described as follows: Cytotoxicity to stromal cells in the stromal cell/PDGF stimulation assay. Conditions: human, read-out: concentrations with cytotoxic effects. It is filed as cell-based. As for the experimental part:
In conjunction with the human stromal cell/PDGF stimulation assay, cytotoxicity of the inventive compounds tested to stromal cells was also determined. […] Only compond no.

Series [14] has as its system IL-2. The series can be described thus: IL-2 production in thymocytes stimulated with ConA and IL-1 (ELISA). The class given is cell-based, murine. Conditions: ConA and IL-1, 4 days. An excerpt:
Thymocytes were stimulated with ConA and IL-1 for 4 days with or without adding inventive compounds to the culture media. The supernatants were removed and assayed by ELISA for IL-2 levels by a commercially available kit.
On the technique in general: ELISA stands for enzyme-linked immunosorbent assay.

For series [15], the system named is splenocyte IL-2-stimulated proliferation. In words: Splenocyte IL-2-stimulated proliferation. The class given is cell-based. Particulars: Mus musculus, read-out: block of splenocyte IL-2-stimulated proliferation.
The subject of series [16] is murine cytotoxic T-cell line, CT6. The series can be described thus: Cytokine-induced proliferation of the cytotoxic T-cell line CT6 / CT-6.1. Particulars: added one hour prior to IL-2, thymidine at 48 hours. The class given is cell-based. As for the experimental part: Another assay in this example was used to determine inhibitive activity of the inventive compounds on direct IL-2-induced proliferation in a murine cytotoxic T-cell line, CT6. The CT6 cell line is an IL-2-dependent cell line. IL-2 was removed from the medium for 24 hours prior to stimulation. […] 49, 50, 45, 43 or 41 were added at various concentrations. The cells were stimulated with IL-2 and amount of tritiated thymidine dye incorporated was measured 48 hours later.
In another related assay, inhibitory effects on CT6 cell proliferation is examined. CT6 cells are a murine IL-2 dependent, cytotoxic T cell line that proliferate in response to murine IL-2 (15 U/ml).
CT-6.1 cells were starved overnight and stimulated with IL-2 (20 ng/ml). Twenty hours later, cells were labeled for 4 hours with ^3H-TdR and counted by liquid scintillation.
CT6.1 cells were cultured with IL-2 with or without the addition of inventive compound no. 45 (2 µM) and viable cells counted for up to 8 days. On day 4, two cultures previously incubated with compound no. 45, were washed and recultured with fresh IL-2 with or without compound no. 45 (2 µM).
Procedurally, CT-6.1 cells were starved overnight and stimulated with either IL-2 (20 ng/ml), IL-4 (50 ng/ml) or IL-7 (25 ng/ml). ^3H-TdR was added at 20 hours, cells were harvested 4 hours later, and the incorporation of ^3H-TdR was determined.

Series [17] concerns IL-2 (alpha chain CD25) receptor. In words: IL-2 receptor expression on anti-CD3 stimulated splenocytes (flow cytometry). The class given is cell-based, mouse. Particulars: anti-CD3 10 µg/ml, 1 µM. On the procedure:
This investigation illustrates IL-2 (alpha chain CD25) receptor expression on mouse splenoyctes. The IL-2 receptor is not expressed on resting T-cells, but is rapidly-induced by certain stimulants, e.g. antigen recognition or treatment with ConA or antibodies to CD3 (anti-CD3). IL-2-dependent proliferation requires IL-2 receptor expression. […] 49 (1 µM). Following overnight incubation, the splenocytes were stained with a fluoresceinated anti-IL-2 receptor antibody and fluorescence measured by flow cytometry. Figures 5A and 5B are frequency histograms of measurements for 20,000 cells per sample.
In another assay, inventive compound no. […] Murine splenocytes were activated for 24 hours with anti-CD3 (1 µg/ml), stained with a fluorescent antibody to CD25 and analyzed by flow cytometry.
For orientation: Flow cytometry measures light scatter and fluorescence of single cells or particles in a stream.

For the compound `Cn1cnc2c1c(=O)n(CCCCCCCC(O)CNCc1ccccc1)c(=O)n2C` (centres unmarked) [compound no. 27, 1-(8-hydroxy-9-(N-benzyl)aminononyl)-3,7-dimethylxanthine], in series [1], the differential cytotoxicity entry is given as “more cytotoxic for the cancer cells than normal cells”. For the same compound, the inhibition at 50 µM in series [2] (Mast cell) was found to be 29%. For the same compound, the IC50 (commonly the concentration at which inhibition is half-maximal) is 3.3 µM in series [3]; below 12500 nM in [5]; 23.1 µM in [6] (first experiment (fig. 7)); 19 µM in [6] (second experiment (fig. 8)); 40 µM in [7] (Lymphocyte, figs. 2A-2C). The “cytotoxicity (percent viability)” value in series [4] is “little or no cytotoxicity”. The immune suppression activity entry in series [7] (fig. 2D) is recorded as “did not exhibit significant suppressive activity”. The “inhibition of thymocyte proliferation” value in series [8] is on record as “the most potent immune-suppressive effects”.

`CCCCCCCCCCCNCC(O)CCCCn1c(=O)c2c(ncn2C)n(C)c1=O` (centres unmarked) [compound no. 30, 1-(6-Undecylamino-5-hydroxyhexyl)-3,7-dimethylxanthine]: in series [9], the yeast-growth inhibitive activity result is listed as “showed yeast-growth inhibitive activity”. In series [2], the “% Inhibition” value was “too toxic”. Also, in [10], the “cytotoxicity, ranking among compounds tested” value is recorded as “the most cytotoxic compound tested”. Further, the IC50 in [10] (transformed (adenovirus) cells) came out at 15 µM; in series [5] it was 940 nM; in series [12] it was 900 nM. Also, the inhibitive activity entry in series [11] is listed as “potent inhibitive activity”. In series [13], the MCC is above 900 nM. Besides, the “inhibition of thymocyte proliferation” value in series [8] was “the most potent immune-suppressive effects”.

In the case of `CCCCCCCCCCNCC(O)CCCCCCCCCn1c(=O)c2c(ncn2C)n(C)c1=O` (centres unmarked) [compound no. 49, 1-(11-Decylamino-10-hydroxyundecyl)-3,7-dimethylxanthine], the IL-2 production entry in series [14] was “do not inhibit production of IL-2”. Further, in series [15], the inhibition at 1 µM turned out to be 90%. Moreover, the “inhibition of direct IL-2-induced proliferation” value in series [16] was “inhibited direct IL-2-induced CT6 proliferation”. Moreover, in series [17], the IL-2 receptor expression result is “has no effect on receptor expression”.
